Experimental data as given in patent US11679107B2 (Eisai R&D Management Co., Ltd., priority 2018, dated 2023).
Read-outs that look alike come from different tables or passages of the source.

Key:
[1] = molecular target: T1, SF3b complexes (Homo sapiens, UniProt O75533+Q7RTV0); test: Scintillation proximity assay (SPA) with [3H]-labelled pladienolide probe; type: binding; settings: SF3B1 (WT); geometric mean; read-out: SPA-ATS GMean IC50 (nM) SF3B1 (WT)
T1 construct: endogenous in cells; host or cells: Nuclear extracts; A HeLa S3 extract preparation is described for the in vitro splicing assay
How it was run: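 SF3b complexes captured from nuclear extracts on anti-SF3B1 antibody SPA beads; test compounds pre-incubated 30 min before 2.5 nM [3H]-pladienolide probe added, then 30 min incubation. Bound probe read by scintillation; values from non-linear regression of concentration–response curves.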

[2] = system: Ad2 variant pre-mRNAs spliced in HeLa S3 nuclear extracts; test: In vitro splicing assay (IVS), RT-qPCR of spliced product; type: biochemical; settings: for IC50: geometric mean; for Ratio Ad2.1/2.2: ratio of IVS IC50 Ad2.1 to Ad2.2
How it was run: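 Read-out is one-step TaqMan RT-qPCR of spliced Ad2 mRNA with Ftz as reference, normalized to DMSO and fit by non-linear regression. Reactions held HeLa S3 nuclear extract, 2 ng Ad2-derived pre-mRNA and test compound, with 15 min preincubation. Splicing was started with ATP-containing activation buffer and run 90 min at 30 °C.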

[3] = system: NCI-H1568 cells (high MCL1); test: Cell proliferation and viability, CellTiter-Glo, 72 hours; type: cell-based; settings: 72 h; for GI50: NCI-H1568, read-out: CTGlo-ATS GMean GI50 (nM) 72 h NCIH1568.1, geometric mean
How it was run: (§1)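 ATP luminescence (CellTiter-Glo) was measured 72 h after treatment with compound at 10 μM–100 pM (11 points, half-log) in 0.1% DMSO. The Panc line was grown in RPMI-1640 plus insulin and 15% FBS, the other in 10% FBS. Data were normalised to time zero and vehicle controls, where −100% is cidal and 0% static.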

[4] = system: Panc 05.04 cells (SF3b K700E mutant); test: as above; type: cell-based; settings: 72 h; for GI50: Panc 05.04, read-out: CTGlo-ATS GMean GI50 (nM) 72 h PANC0504.1, geometric mean
How it was run: as §1

[5] = Ad2.1 pre-mRNA substrate, read-out: qPCR-IVS-ATS GMean IC50 (nM) Ad2.1
[6] = Ad2.2 pre-mRNA substrate, read-out: qPCR-IVS-ATS GMean IC50 (nM) Ad2.2
[7] = NCIH1568.1 cells, −100% cidal, 0% static, 100% maximal growth
[8] = PANC0504.1 cells, −100% cidal, 0% static, 100% maximal growth
[9] = NCIH1568.1, -100% = cidal, 0% = static, 100% = uninhibited growth
[10] = PANC0504.1, -100% = cidal, 0% = static, 100% = uninhibited growth

Compound	IC50 [1] [nM]	IC50 [2, 5] [nM]	IC50 [2, 6] [nM]	GI50 ([3]; NCIH1568.1 cells) [nM]	CTGlo-ATS Mean MinResponse % 72 h NCIH1568.1 [3, 7] [%]	CTGlo-ATS Mean MinResponse % 72 h PANC0504.1 [4, 8] [%]	GI50 ([4]; PANC0504.1 cells) [nM]	Ratio Ad2.1/2.2 [2]	CTGlo-ATS Mean MinResponse % 72 h NCIH1568.1 [3, 9] [%]	GI50 ([3]; NCIH1568.1) [nM]	CTGlo-ATS Mean MinResponse % 72 h PANC0504.1 [4, 10] [%]	GI50 ([4]; PANC0504.1) [nM]
C/C(=C\c1cc(F)cc(N2CCOCC2)c1)[C@H]1OC(=O)C[C@H](O)CC[C@H](C)[C@@H](OC(=O)N(C)C2CCCN(C)C2)/C=C/[C@@H]1C (some centres unmarked) [Compound 37]	2.27	85.8	20.2	4.75	−82.247	−86.134	4.61	–	–	–	–	–
C/C(=C\c1cc(F)cc(N2CC[C@H](N(C)C)C2)c1)[C@H]1OC(=O)C[C@H](O)CC[C@H](C)[C@@H](OC(=O)N2CCN(C)CC2)/C=C/[C@@H]1C [Compound 17]	10.7	46.8	34	53.4	−87.647	−72.749	57.8	–	–	–	–	–
C/C(=C\c1ccc(C)c2[nH]ncc12)[C@H]1OC(=O)C[C@H](O)CC[C@H](C)[C@@H](OC(=O)N2CCN(C)CC2)/C=C/[C@@H]1C [Compound 89, [(2S,3S,4E,6R,7S,10R)-10-hydroxy-3,7-dimethyl-2-[(E)-1-(7-methyl-1H-indazol-4-yl)prop-1-en-2-yl]-12-oxo-1-oxacyclododec-4-en-6-yl] 4-methylpiperazine-1-carboxylate]	3.25	24700	95.4	219	−22.815	−16.694	109	–	–	–	–	–
CNC(=O)[C@H]1CN(c2cc(F)cc(/C=C(\C)[C@H]3OC(=O)C[C@H](O)CC[C@H](C)[C@@H](OC(=O)N4CCN(C)CC4)/C=C/[C@@H]3C)c2)CCO1 [Compound 78]	1.76	24.3	13.8	2.5	−74.454	−93.916	7.33	–	–	–	–	–
C/C(=C\c1cccc(COC(=O)N2CC[C@@H](F)C2)c1)[C@H]1OC(=O)C[C@H](O)CC[C@H](C)[C@@H](OC(=O)N2CCN(C)CC2)/C=C/[C@@H]1C [Compound 260]	0.196	> 25000	99.4	–	–	–	–	251.398	−44.621	42.3	−47.734	39.5
C/C(=C\c1ccc2c(C)nn(C)c2c1)[C@H]1OC(=O)C[C@H](O)CC[C@H](C)[C@@H](OC(=O)N2CCN(C)CC2)/C=C/[C@@H]1C [Compound 50]	1.46	17900	60.2	43.6	−65.255	−82.642	28.3	–	–	–	–	–
C/C(=C\c1cc(F)cc(N2CCN(CC(=O)C3CC3)CC2)c1)[C@H]1OC(=O)C[C@H](O)CC[C@H](C)[C@@H](OC(=O)N2CCN(C)CC2)/C=C/[C@@H]1C [Compound 84]	2.75	29.6	22.1	4.3	−80.428	−89.010	5.61	–	–	–	–	–
CNC(=O)Cn1ncc2c(F)cc(/C=C(\C)[C@H]3OC(=O)C[C@H](O)CC[C@H](C)[C@@H](OC(=O)N4CCN(C)CC4)/C=C/[C@@H]3C)cc21 [Compound 128]	8.76	3350	18.1	25.7	−62.651	−96.227	44.2	–	–	–	–	–
C/C(=C\c1cccc(COC(=O)N2CC[C@@H](F)C2)c1)[C@H]1OC(=O)C[C@H](O)CC[C@H](C)[C@@H](OC(=O)N2CCN(C)CC2)/C=C/[C@@H]1C (single isomer, unassigned) [Compound 256]	15.6	> 25000	112	–	–	–	–	222.862	−5.090	60.9	−88.839	43.4
